Source: PubChem BioAssay AID1259427 (Fisher Drug Discovery Resource Center, 2018)
Active and inactive are the calls of the source.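 The calls were made as follows: active = EC50 at or below a set limit, with no effect in the paired counter-screen assay; inactive = the rest.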

Molecular target: Aedes aegypti neuropeptide Y-like receptor 7 (NPYLR7)
Assay: NPYLR7 activation potency in cells – cell-based, Aedes aegypti, hit validation, mosquito biting behavior, confirmation (AID 1259427);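 also: potency of agonists that activate the receptor and raise the calcium signal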
Conditions: HEK293T NPYLR7/Galpha15/GCaMP6s, calcium fluorescence

SMILES	EC50
COCCN=Cc1cc(I)cc(I)c1O	> 20 µM (inactive)
Nc1c2c(nc3sc4c(c13)CCCC4)CCCCC2	> 20 µM (inactive)
CCn1c(=O)c2c(nc(/C=C/c3ccc(OC)c(OC)c3)n2C)n(CC)c1=O	> 20 µM (inactive)
Nc1nc(Cl)nc2c1ncn2[C@@H]1O[C@H](CO)[C@@H](O)[C@H]1O	inactive
Cc1ccc(C(=O)C=Cc2ccc(N(C)C)cc2)o1	< 0.039 µM (inactive)
Cc1ccc(CN(Cc2ccc(F)cc2)C(=O)CNCCN2CCOCC2)s1	> 20 µM (inactive)
O=C(CSc1cn(CC(=O)N2CCCCCC2)c2ccccc12)NC1CCCC1	> 20 µM (inactive)
CC(C)OC(=O)C(C(=O)C(F)(F)F)c1cc(NS(=O)(=O)c2ccc(Cl)cc2)ccc1O (configuration not stated)	> 20 µM (inactive)
CC(C)COCC(O)CN(Cc1cccn1C)CC1CCCO1 (configuration not stated)	> 20 µM (inactive)
COc1cc(-c2nc3n(n2)C(c2ccc(O)cc2)C(C(N)=O)=C(C)N3)cc(OC)c1OC (configuration not stated)	> 20 µM (inactive)
CCOC(=O)N1CCN(c2ccc(/C=C(\C#N)c3nc4ccccc4[nH]3)o2)CC1	> 20 µM (inactive)
CN1CCc2c(sc(NC(=O)Cc3ccccc3)c2-c2nc3ccccc3s2)C1	> 20 µM (inactive)
O=C(CNCc1ccccc1)N1CC(=O)N(c2cccc(Cl)c2)C1	> 20 µM (inactive)
CCCCCN=C(N)NN=Cc1c[nH]c2ccc(OC)cc12	7.37 µM
O=C(COc1ccccc1)N1CCCC(CNS(=O)(=O)c2cccs2)C1 (configuration not stated)	13.2 µM
O=C(O)CCn1c(O)c(C=C2C=Nc3ccccc32)sc1=S	> 20 µM (inactive)
COc1cc(OC)c(OC)cc1/C=C1/SC(=S)N(CC(=O)O)C1=O	inactive
COc1ccc(/C=C2\Oc3c(ccc4c3CN(Cc3ccncc3)CO4)C2=O)cc1	inactive
COCCCN(Cc1ccc(C(C)(C)C)cc1)Cc1cccn1Cc1cccc(C)c1	> 20 µM (inactive)
CCOC(=O)C1=C(O)/C(=C\c2ccc(N(C)C)cc2)SC1=Nc1ccc(OC)cc1OC	> 20 µM (inactive)
O=C(O)CN1C(=O)/C(=C/c2cc(Br)c(O)c(Br)c2)SC1=S	inactive
O=c1oc2cc(O)ccc2cc1-c1nc2ccccc2s1	inactive
CCOc1cc2c(cc1C=C(C#N)C#N)OC(C)C2 (configuration not stated)	> 20 µM (inactive)
N#Cc1cc2cc(Cl)cc(Cl)c2oc1=O	inactive

SMILES	EC50
COc1ccc(Cl)cc1Nc1nnc(-c2cc3c(ccc4ccccc43)oc2=O)s1	> 20 µM (inactive)
O=C(C1=NN(c2ccccc2)C2C(=O)N(c3ccccc3)C(=O)C12)c1ccccc1 (configuration not stated)	> 20 µM (inactive)
COc1ccc(N2C(=O)/C(=C\c3ccc[nH]3)N(C)C2=S)c([N+](=O)[O-])c1	> 20 µM (inactive)
OCCN(CCO)c1nc(N2CCCCC2)c2nc(N(CCO)CCO)nc(N3CCCCC3)c2n1	inactive
CSc1ccc(C2CC(c3cccs3)=Nc3ncnn32)cc1 (configuration not stated)	inactive
COc1cc(C=C2C=c3c(O)cccc3=C2O)cc(Cl)c1O	inactive
CCN1CCc2c(sc(NC(=O)c3ccccc3)c2-c2nc3ccccc3s2)C1	> 20 µM (inactive)
C[C@H](O)C(=O)C1=Nc2c(nc(N)[nH]c2=O)NC1	> 20 µM (inactive)
COc1ccc(CN2CCN(Cc3cccn3-c3ncccn3)CC2CCO)c(C)c1C (configuration not stated)	> 20 µM (inactive)
COc1cccc(-n2c(O)c(C=Nc3cc(OC)ccc3OC)c3ccccc3c2=O)c1	> 20 µM (inactive)
CCOC(=O)c1ccc(N=c2oc3cc(O)ccc3cc2-c2nc3ccccc3[nH]2)cc1	inactive
Oc1ccc(-c2onc3ccc(Cl)cc23)cc1	> 20 µM (inactive)
CCOC(=O)c1c(-c2ccccc2)csc1N=Cc1nc(-c2ccco2)oc1O	> 20 µM (inactive)
CSc1nc(N)c2ncn([C@@H]3O[C@H](COP(=O)(O)OP(=O)(O)OP(=O)(O)O)[C@H](O)C3O)c2n1 (some centres not stated)	inactive
COc1ccc(-n2ccnc2-c2ccc(C#CC(C)(C)O)cc2)cn1	> 20 µM (inactive)
O=c1nc2sc3[nH]c(=O)sc3cc-2s1	< 0.039 µM (inactive)
O=C1/C(=C/c2cccc(F)c2)Oc2c1ccc(O)c2CN1CCN(CCO)CC1	> 20 µM (inactive)
O=C(O)c1csc(CSc2nnc(-c3ccncc3)n2-c2cccc(C(F)(F)F)c2)n1	> 20 µM (inactive)
N#C/C(=C/c1ccc(N2CCCCC2)o1)c1cccc(F)c1	> 20 µM (inactive)
Cc1ccc(-c2nc3nc(N)n(C)c(=O)c3[nH]c2=O)cc1	> 20 µM (inactive)
COc1cc(OC)c(C2=NOC3(CC(=O)N(c4cccc(Cl)c4)C3=O)C2)cc1OC (configuration not stated)	> 20 µM (inactive)
CC(C)Nc1ccc(NS(=O)(=O)NCc2ccccc2)cn1	> 20 µM (inactive)
CC(=NNc1ncnc2sc(C)c(C)c12)c1ccccn1	inactive
O=C1CSC(=S)N1N=Cc1cc(Br)c(O)c(Br)c1	inactive

SMILES	EC50
COc1ccc(C(=O)C=Cc2cc(OC)c(O)c(OC)c2)cc1F	> 20 µM (inactive)
O=c1oc2c(CN3CCN(CCO)CC3)c(O)ccc2cc1-c1nc2ccccc2s1	< 0.039 µM (inactive)
CCCCNC(=O)CCCCCNC(N)=O	> 20 µM (inactive)
NC(=S)N/N=c1\oc2cc(O)ccc2cc1-c1nc2ccccc2[nH]1	inactive
COc1ccc(OC)c(CCNc2nc3cnc(-c4ccc5c(c4)OCO5)cc3n2C)c1	8.34 µM
N#Cc1cc(C(=O)c2cc(Cl)cc(Cl)c2O)cn(-c2nccs2)c1=O	14.4 µM
CCOC(=O)N1CCC(NC(=O)c2sc3nc4c(c(C(F)(F)F)c3c2N)CC(C)CC4)CC1 (configuration not stated)	> 20 µM (inactive)
Cc1ccc(CNC(=O)NC(c2ccc3c(c2)OCCCO3)C(C)C)cc1F (configuration not stated)	> 20 µM (inactive)
N#CC(C#N)=C1C=C2C=C(N3CCCC3)CCC2CC1 (configuration not stated)	< 0.039 µM (inactive)
Cc1nc(Sc2nnc3ccccn23)c2c3c(sc2n1)CCCC3	> 20 µM (inactive)
O=C(Cc1ccc2c(c1)CCC2)NCC1CCN(c2ccccc2)C1 (configuration not stated)	> 20 µM (inactive)
CCN(CC)c1ccc(/C=C2\SC(=S)N(CC(=O)O)C2=O)c(O)c1	inactive
CC(C)(C)c1cnc(CSc2cnc(NC(=O)C3CCNCC3)s2)o1	14.9 µM
CCN(CC)CC[n+]1c(C)cc(C=C2Sc3ccccc3N2C)cc1C	> 20 µM (inactive)
CCOc1ccc(/C=C2N=C(/C=C/c3ccccc3)OC/2=O)cc1	> 20 µM (inactive)
CN(Cc1cnc2ccccc2n1)C(=O)C1CC2(CCNCC2)CN1 (configuration not stated)	> 20 µM (inactive)
CCN1CC(=Cc2cc(C)n(C3CC3)c2C)C(=O)C(=Cc2cc(C)n(C3CC3)c2C)C1	> 20 µM (inactive)
O=C1Nc2ccccc2C1C=NN1CCOCC1 (configuration not stated)	> 20 µM (inactive)
COc1ccc(-n2ccnc2-c2nc(-c3cccs3)oc2C)cn1	> 20 µM (inactive)
COc1cc(/C=C2\SC(=S)N(c3cccc(C(=O)O)c3)C2=O)ccc1O	> 20 µM (inactive)
Cn1c(/C(C#N)=C/c2ccc(N3CCOCC3)o2)nc2ccccc21	14.9 µM
COc1ccc(C2=NN(C(=O)CN3CCOCC3)C(c3nc4ccccc4[nH]3)C2)cc1 (configuration not stated)	> 20 µM (inactive)
CCN1CCN(C(=O)c2ccc(Cn3ccsc3=NC(=O)c3ccc(OC)c(OC)c3)o2)CC1	14.3 µM
O=C1c2cccc3c(NCC(O)CCl)ccc(c23)C(=O)N1c1ccccc1 (configuration not stated)	< 0.039 µM (inactive)
